Experimental data from patent US7772241B2, “Variolin derivatives and their use as antitumor agents” (Pharma Mar S.A., priority 2001, dated 2010).
Like-named read-outs stand apart in the source and are kept apart here. Values belong to the compound of their own block, whether it stands above or below them.

Tests used:
A-549 = test: Inhibition of cells growth by colorimetric (SRB) assay, A-549; details: for GI50 / CC50: Homo sapiens, A549, 48 h
Description: (§1) The finality of these assays is to interrupt the growth of a “in vitro” tumor cell culture by means a continued exhibition of the cells to the sample to be testing.
(§2) This form of the assay employs 96 well cell culture microplates of 9 mm diameter (Faircloth, 1988; Mosmann, 1983). Most of the cell lines are obtained from American Type Culture Collection (ATCC) derived from different human cancer types.
(§3) Cells are maintained in RPMI 1640 10% FBS, supplemented with 0.1 g/l penicillin and 0.1 g/l streptomycin sulphate and then incubated at 37° C., 5% CO2 and 98% humidity. For the experiments, cells were harvested from subconfluent cultures using trypsin and resuspended in fresh medium before plating.
(§4) Cells are seeded in 96 well microtiter plates, at 5×10^3 cells per well in aliquots of 195 μl medium, and they are allowed to attach to the plate surface by growing in drug free medium for 18 hours. Afterward, samples are added in aliquots of 5 μl in a ranging from 10 to 10^−8 μg/ml, dissolved in DMSO/EtOH/PBS (0.5:0.5:99). After 48 hours exposure, the antitumor effect are measured by the SRB methodology: cells are fixed by adding 50 μl of cold 50% (wt/vol) trichloroacetic acid (TCA) and incubating for 60 minutes at 4° C. Plates are washed with deionized water and dried. One hundred μl of SRB solution (0.4% wt/vol in 1% acetic acid) is added to each microtiter well and incubated for 10 minutes at room temperature. Unbound SRB is removed by washing with 1% acetic acid. Plates are air dried and bound stain is solubilized with Tris buffer. Optical densities are read on a automated spectrophotometric plate reader at a single wavelength of 490 nm.
(§5) The values for mean +/−SD of data from triplicate wells are calculated. Some parameters for cellular responses can be calculated: GI=growth inhibition, TGI=total growth inhibition (cytostatic effect) and LC=cell killing (cytotoxic effect).

HT-29 = test: Inhibition of cells growth by colorimetric (SRB) assay, HT-29; details: for GI50 / CC50: Homo sapiens, HT-29, 48 h
Description: as §1, §2, §3, §4, §5

K-562 = test: Inhibition of cells growth by colorimetric (SRB) assay, K-562; details: for GI50 / CC50: Homo sapiens, K562, 48 h; for GI50: read-out: GI50 K-562, SRB assay, 48 hours exposure; for CC50: read-out: LC50 K-562, SRB assay, 48 hours exposure; for TGI K-562: SRB assay, 48 hours exposure
Description: as §1, §2, §3, §4, §5

SK-MEL-28 = test: Inhibition of cells growth by colorimetric (SRB) assay, SK-MEL-28; details: for GI50 / CC50: Homo sapiens, SK-MEL-28, 48 h; for GI50: read-out: GI50 MEL-28, SRB assay, 48 hours exposure; for CC50: read-out: LC50 MEL-28, SRB assay, 48 hours exposure; for TGI MEL-28: SRB assay, 48 hours exposure
Description: as §1, §2, §3, §4, §5

LoVo = test: Inhibition of cells growth by colorimetric (SRB) assay, LoVo; details: for GI50 / CC50: Homo sapiens, LoVo, 48 h; for GI50: read-out: GI50 LOVO, SRB assay, 48 hours exposure; for CC50: read-out: LC50 LOVO, SRB assay, 48 hours exposure; for TGI LOVO: SRB assay, 48 hours exposure
Description: as §1, §2, §3, §4, §5

LoVo-Dox = test: Inhibition of cells growth by colorimetric (SRB) assay, LoVo-Dox; details: for GI50 / CC50: Homo sapiens, 48 h; for GI50: read-out: GI50 LOVO-DOX, SRB assay, 48 hours exposure; for CC50: read-out: LC50 LOVO-DOX, SRB assay, 48 hours exposure; for TGI LOVO-DOX: SRB assay, 48 hours exposure
Description: as §1, §2, §3, §4, §5

DU-145 = test: Inhibition of cells growth by colorimetric (SRB) assay, DU-145; details: for GI50 / CC50: Homo sapiens, DU-145, 48 h; for GI50: read-out: GI50 DU-145, SRB assay, 48 hours exposure; for CC50: read-out: LC50 DU-145, SRB assay, 48 hours exposure; for TGI DU-145: SRB assay, 48 hours exposure
Description: as §1, §2, §3, §4, §5

LNCaP = test: Inhibition of cells growth by colorimetric (SRB) assay, LNCaP; details: for GI50 / CC50: Homo sapiens, LNCaP, 48 h; for GI50: read-out: GI50 LN-caP, SRB assay, 48 hours exposure; for CC50: read-out: LC50 LN-caP, SRB assay, 48 hours exposure; for TGI LN-caP: SRB assay, 48 hours exposure
Description: as §1, §2, §3, §4, §5

IGROV-1 = test: Inhibition of cells growth by colorimetric (SRB) assay, IGROV-1; details: for GI50 / CC50: Homo sapiens, IGROV-1, 48 h; for GI50: read-out: GI50 IGROV, SRB assay, 48 hours exposure; for CC50: read-out: LC50 IGROV, SRB assay, 48 hours exposure; for TGI IGROV: SRB assay, 48 hours exposure
Description: as §1, §2, §3, §4, §5

IGROV-ET = test: Inhibition of cells growth by colorimetric (SRB) assay, IGROV-ET; details: for GI50 / CC50: Homo sapiens, 48 h; for GI50: read-out: GI50 IGROV-ET, SRB assay, 48 hours exposure; for CC50: read-out: LC50 IGROV-ET, SRB assay, 48 hours exposure; for TGI IGROV-ET: SRB assay, 48 hours exposure
Description: as §1, §2, §3, §4, §5

SK-OV-3 = test: Inhibition of cells growth by colorimetric (SRB) assay, SK-OV-3; details: for GI50 / CC50: Homo sapiens, SK-OV-3, 48 h; for GI50: read-out: GI50 SKOV-3, SRB assay, 48 hours exposure; for CC50: read-out: LC50 SKOV-3, SRB assay, 48 hours exposure; for TGI SKOV-3: SRB assay, 48 hours exposure
Description: as §1, §2, §3, §4, §5

PANC-1 = test: Inhibition of cells growth by colorimetric (SRB) assay, PANC-1; details: for GI50 / CC50: Homo sapiens, PANC-1, 48 h; for GI50: read-out: GI50 PANC-1, SRB assay, 48 hours exposure; for CC50: read-out: LC50 PANC-1, SRB assay, 48 hours exposure; for TGI PANC-1: SRB assay, 48 hours exposure
Description: as §1, §2, §3, §4, §5

[1] = read-out: GI50 A-549, SRB assay, 48 hours exposure
[2] = read-out: LC50 A-549, SRB assay, 48 hours exposure
[3] = read-out: GI50 HT-29, SRB assay, 48 hours exposure
[4] = read-out: LC50 HT-29, SRB assay, 48 hours exposure

Compound: COc1ccc(CNc2nccc(-c3c4c(OCc5ccccc5)ccnc4n4c(NCc5ccc(OC)cc5)nccc34)n2)cc1 [Compound 53]
GI50 (A-549; [1]): 16 µM | CC50 (A-549; [2]): 16 µM | TGI A-549 (A-549; SRB assay, 48 hours exposure): 1.60E−05 | GI50 (HT-29; [3]): 16 µM | CC50 (HT-29; [4]): 16 µM | TGI HT-29 (HT-29; SRB assay, 48 hours exposure): 1.60E−05

Compound: CSc1nccc2c(C(C)C)c3cccnc3n12 [Compound 61]
GI50 (K-562): 9.79 µM | CC50 (K-562): ≥ 38.9 µM | TGI K-562 (K-562): 2.44E−05 | GI50 (A-549; [1]): 24.6 µM | CC50 (A-549; [2]): ≥ 38.9 µM | TGI A-549 (A-549; SRB assay, 48 hours exposure): 3.89E−05 | GI50 (SK-MEL-28): 20.2 µM | CC50 (SK-MEL-28): ≥ 38.9 µM | TGI MEL-28 (SK-MEL-28): 3.89E−05 | GI50 (HT-29; [3]): 28.9 µM | CC50 (HT-29; [4]): ≥ 38.9 µM | TGI HT-29 (HT-29; SRB assay, 48 hours exposure): 3.89E−05 | GI50 (LoVo): 23 µM | CC50 (LoVo): ≥ 38.9 µM | TGI LOVO (LoVo): 3.89E−05 | GI50 (LoVo-Dox): 13.7 µM | CC50 (LoVo-Dox): ≥ 38.9 µM | TGI LOVO-DOX (LoVo-Dox): 3.89E−05 | GI50 (DU-145): 14.9 µM | CC50 (DU-145): ≥ 38.9 µM | TGI DU-145 (DU-145): 3.89E−05 | GI50 (LNCaP): 8.7 µM | CC50 (LNCaP): 37.1 µM | TGI LN-caP (LNCaP): 1.80E−05 | GI50 (IGROV-1): 15.7 µM | CC50 (IGROV-1): ≥ 38.9 µM | TGI IGROV (IGROV-1): 3.49E−05 | GI50 (IGROV-ET): 7.34 µM | CC50 (IGROV-ET): ≥ 38.9 µM | TGI IGROV-ET (IGROV-ET): 2.27E−05 | GI50 (SK-OV-3): 12.4 µM | CC50 (SK-OV-3): ≥ 38.9 µM | TGI SKOV-3 (SK-OV-3): 2.96E−05 | GI50 (PANC-1): 11.5 µM | CC50 (PANC-1): ≥ 38.9 µM | TGI PANC-1 (PANC-1): 3.83E−05

Compound: Nc1nccc2c(-c3cccc([N+](=O)[O-])c3)c3cccnc3n12 [Compound 64]
GI50 (K-562): 9.24 µM | CC50 (K-562): 32.8 µM | TGI K-562 (K-562): 2.47E−05 | GI50 (A-549; [1]): 31.6 µM | CC50 (A-549; [2]): 32.8 µM | TGI A-549 (A-549; SRB assay, 48 hours exposure): 3.28E−05 | GI50 (SK-MEL-28): 21.7 µM | CC50 (SK-MEL-28): 32.8 µM | TGI MEL-28 (SK-MEL-28): 3.28E−05 | GI50 (HT-29; [3]): 32.8 µM | CC50 (HT-29; [4]): 32.8 µM | TGI HT-29 (HT-29; SRB assay, 48 hours exposure): 3.28E−05 | GI50 (LoVo): 23.3 µM | CC50 (LoVo): 32.8 µM | TGI LOVO (LoVo): 3.28E−05 | GI50 (LoVo-Dox): 22.7 µM | CC50 (LoVo-Dox): 32.8 µM | TGI LOVO-DOX (LoVo-Dox): 3.28E−05 | GI50 (DU-145): 31 µM | CC50 (DU-145): 32.8 µM | TGI DU-145 (DU-145): 3.28E−05 | GI50 (LNCaP): 2.84 µM | CC50 (LNCaP): 19.9 µM | TGI LN-caP (LNCaP): 7.89E−06 | GI50 (IGROV-1): 14.4 µM | CC50 (IGROV-1): 32.8 µM | TGI IGROV (IGROV-1): 3.28E−05 | GI50 (IGROV-ET): 18.9 µM | CC50 (IGROV-ET): 32.8 µM | TGI IGROV-ET (IGROV-ET): 3.28E−05 | GI50 (SK-OV-3): 22.3 µM | CC50 (SK-OV-3): 32.8 µM | TGI SKOV-3 (SK-OV-3): 3.28E−05 | GI50 (PANC-1): 20.9 µM | CC50 (PANC-1): 32.8 µM | TGI PANC-1 (PANC-1): 3.28E−05

Second part, led by results:

GI50 (A-549; [1]): 5.35 µM | GI50 (HT-29; [3]): 1.22 µM
Compound: COC(=O)C(C(=O)OC)c1nccc(-c2c3cccnc3n3c(N)nccc23)n1 [Compound 74]
CC50 (A-549; [2]): 21.3 µM | TGI A-549 (A-549; SRB assay, 48 hours exposure): 1.07E−05 | CC50 (HT-29; [4]): 25.5 µM | TGI HT-29 (HT-29; SRB assay, 48 hours exposure): 2.55E−05

GI50 (A-549; read-out: A-549 GI50, SRB assay, 48 hours exposure): 25.1 µM | GI50 (HT-29; read-out: HT-29 GI50, SRB assay, 48 hours exposure): 25.1 µM
Compound: COc1ccc(COc2nccc(-c3c4cccnc4n4c(N)nccc34)n2)cc1 [Compound 79]
CC50 (A-549; read-out: A-549 LC50, SRB assay, 48 hours exposure): 25.1 µM | A-549 TGI (A-549; SRB assay, 48 hours exposure): 2.51E−05 | CC50 (HT-29; read-out: HT-29 LC50, SRB assay, 48 hours exposure): 25.1 µM | HT-29 TGI (HT-29; SRB assay, 48 hours exposure): 2.51E−05

GI50 (A-549; [1]): 12.3 µM | GI50 (HT-29; [3]): 16.2 µM
Compound: Nc1nccc(-c2c3c(OCc4ccccc4)ccnc3n3c(N)nccc23)n1 [Compound 96]
CC50 (A-549; [2]): 26.1 µM | TGI A-549 (A-549; SRB assay, 48 hours exposure): 2.61E−05 | CC50 (HT-29; [4]): 26.1 µM | TGI HT-29 (HT-29; SRB assay, 48 hours exposure): 2.61E−05

GI50 (A-549; [1]): 11.5 µM | GI50 (HT-29; [3]): 11.9 µM
Compound: CCOc1nccc(-c2c3c(OCc4ccccc4)ccnc3n3c(N)nccc23)n1 [Compound 103]
CC50 (A-549; [2]): 24.2 µM | TGI A-549 (A-549; SRB assay, 48 hours exposure): 2.42E−05 | CC50 (HT-29; [4]): 24.2 µM | TGI HT-29 (HT-29; SRB assay, 48 hours exposure): 2.42E−05

GI50 (A-549; [1]): 21.1 µM | GI50 (HT-29; [3]): 21.1 µM
Compound: Nc1nccc2c(-c3ccnc(OCc4ccccc4)n3)c3c(OCc4ccccc4)ccnc3n12 [Compound 104]
CC50 (A-549; [2]): 21.1 µM | TGI A-549 (A-549; SRB assay, 48 hours exposure): 2.11E−05 | CC50 (HT-29; [4]): 21.1 µM | TGI HT-29 (HT-29; SRB assay, 48 hours exposure): 2.11E−05
